Test: Clinical trial: neutropenia, thrombocytopenia and toxicity post-melphalan reduced-intensity conditioning
Conditions: for Days ANC >500 (Absolute Neutrophil Count) / Days Platelets <50: 140 mg/m^2 melphalan single dose

N[C@@H](Cc1ccc(N(CCCl)CCCl)cc1)C(=O)O [Melphalan, melphalan]
Days ANC >500 (Absolute Neutrophil Count) (Subject 1): 9 days | Days Platelets <50 (Subject 1): 13 days | Days ANC >500 (Absolute Neutrophil Count) (Subject 2): 7 days | Days Platelets <50 (Subject 2): 8 days | chemotherapy related toxicity: cytopenia (both subjects): temporary cytopenia | chemotherapy related toxicity: transaminases (both subjects): temporary mild evelvations in transaminases | chemotherapy related toxicity: mucositis (both subjects, follow-up 1 year and 6 months): 2-3 grade

From patent US20210380946A1 (priority 2018, published 2021)
